Test results: US20190032014A1, “USING MICROBIOTA METABOLITES TO DIFFERENTIATE NAÏVE T-CELLS AND RELATED METHODS TO INDUCE OR PREVENT INFLAMMATORY CONDITIONS” (THE TEXAS A&M UNIVERSITY SYSTEM, priority 2016, published 2019)
“Also recorded” adds a separate entry of the source. Where two headings read alike, the source gives them in different places.

Experiments:
Th17 transfer colitis = Th17 transfer colitis murine model; type: in vivo, Rag-null mice
Experimental: Finally, the presentation describes a study of the effects of an indole-induced iTreg skew on the course of colitis in a Th17 transfer colitis murine model. […] Briefly, naïve T-cells (CD4+CD25−) were cultured in vitro with cytokines to skew function towards a Th17 phenotype, in the presence of indole or 5-HI, or not. The skewed cultures were transferred to Rag-null mice (lack T- and B-lymphocytes); control mice received no T-cells. Mice were monitored for weight loss (as a measure of inflammation) over several weeks and assessed at indicated timepoints for T-cell phenotype.
The body weight of the mice was monitored from the time of cell transfer to the end point of day 49. […] Next, the Treg, Th17, and Th1 differentiation was assessed in cells obtained from the mesenteric lymph nodes (MLN) of mice administered directly with indole, 5-HI and control. These cells were determined/assayed by FACS for phenotype directly ex vivo from mice that were treated as in FIG. 28.

CD4+ CD25− naïve T cells [1] = assay: In vitro naïve T cell differentiation, Treg-skew (FoxP3+ by FACS); type: cell-based, C57BL/6 mice; settings: for effect on % FoxP3+ cells / Treg differentiation: vs DMF control; for % FoxP3+ cells: indole less than 500 μM
Experimental: Mesenteric lymph node (MLN) and spleen are harvested from WT or FOXP3^EGFP C57Bl/6 mice and homogenized. Spleen tissue is subjected to red blood cell lysis and pooled into a single cell suspension for counting. Counted cells are resuspended in sterile FACS buffer (PBS++ with 05% bovine serum albumin) at a concentration of ˜5×10^7 cells/mL and stained for 45 minutes at 4° C. with anti-CD4 and anti-CD25 fluorophore-conjugated monoclonal antibodies (mAb). After two washes, the stained cells are resuspended at ˜6×10^6 cells/mL in FACS buffer and immediately sorted. […] TDMMs are solubilized in DMF at 2 M and used at desired concentrations (e.g., 0.01, 0.1, 0.5 and 1.0 mM) in growth media; DMF in growth media (0.05%) is used as a solvent control.
The % of Treg or Th17 cells are determined based on the expression of signature transcription factors, FoxP3 and Rorγt, respectively. In addition, signature cytokine markers for Treg and Th17, TGFβ or IL-17, respectively, among others are measured using intracellular cytokine staining. Since it is possible that a cell could be positive for FoxP3 and still express some IL-17, the final % of Tregs are determined as the cell population that is FoxP3+TGFβ+ Rorγt-IL-17−. Similarly, the % of Th17 cells are determined as the population that is FoxP3-TGFβ− Rorγt+IL-17+.
(§1) CD4+ CD25− T cells were isolated to high purity (>98%) from the pooled spleen and mesenteric lymph nodes of C57BL/6 mice (Jackson Labs) with a BD FACS Aria II flow cytometer. Fc Block (BD), αCD4-efluor450 (eBioscience clone GK1.5) and αCD25-PECy7 (eBioscience clone PC61.5) antibodies were used for staining before sorting.
(§2) For Th1-skew: 5 ng/mL IL-12 (Peprotech cat. #210-12) and 10 µg/mL αIL-4 (BioXCell clone 11B11) were added to culture. For Th2-skew: 10 ng/mL IL-4 (Peprotech) and 10 μg/mL αIFN-γ (BioXCell clone R4-6A2) were added to culture. For Th17-skew: 10 ng/mL IL-6 (Peprotech), 5 ng/mL IL-23 (R&D), 0.5 ng/mL TGF-β (Peprotech), 10 μg/mL al-4 (BioXCell clone 11B11), and 10 μg/mL αIFN-γ (BioXCell clone R4-6A2) were added to culture. For Treg-skew: 2 ng/mL TGF-β (Peprotech) and 100 U/mL IL-2 (Roche) were added to culture. Sodium Propionate, sodium acetate, sodium butyrate and sodium chloride (all from Sigma-Aldrich) were solubilized in media and added to culture. Indole was solubilized in DMF (both from Sigma-Aldrich) at 2M and brought to final concentration in media. MGCD0103 (Selleck Chemicals) was solubilized in DMF at 2 mM and brought to final concentration in media. A 0.05% DMF solvent control was used for all experiments.

DSS colitis = DSS colitis model; settings: 5% DSS 7 days, then indole 7 days; wild-type vs Rag-deficient mice
Experimental: FIG. 32A: Wild-type C57B16 mice were treated with 5% DSS, or not, in drinking water for 7 days. […] Individual mouse weight was recorded daily throughout experiment as a measure of inflammation. FIG. 32B: Mice were treated as in FIG. 32A, only mice were Rag-deficient mice, which lack lymphocytes (T- and B-cells).
For FIG. 32A, wild-type C57B16 mice were treated with 5% DSS, or not, in drinking water for 7 days. […] Individual mouse weight was recorded daily throughout experiment as a measure of inflammation. For FIG. 32B, Rag-deficient mice, which lack lymphocytes (T- and B-cells), were treated as in FIG. 32A and individual weight was recorded.

CD4+ CD25− naïve T cells [2] = assay: In vitro naïve T cell differentiation, Th1-skew (IFN-γ+); type: cell-based, C57BL/6 mice; settings: Th1 skewing conditions
Experimental: When naïve CD4+ CD25− cells were cultured 72 hours in αCD3/28 coated wells with Th0-, Th1- or Th2-skew cytokines and indole or solvent control, followed by stimulation with PMA, Ionomycin and Golgi Plug for the last 5 hours of culture, no effect on the % of Th1 and Th2 cells was observed (in contrast to the significant effect that indole has on Treg and Th17 cells; see FIGS. 2A and 2B).
as §1, §2

mTOR = mTOR activation (% P-S6) in conditioned T cells; type: cell-based; settings: matured conditioned T cells
Description: The mechanistic target of rapamycin (mTOR) is a core component in multiple protein complexes that have significant influence on various cellular processes including cell growth, differentiation, and even enteropathies in the intestine. Accordingly, the interaction of indole and 5-HI on mTor activation was investigated.

[3] = system: TGF-β receptor / pSMAD2/3; assay: TGF-β receptor expression and SMAD2/3 activity; type: cell-based
Experimental: Indole and 5-HI were assessed for impact on TGF-β receptor expression and SMAD2/3 activity. […] Indole and 5-HI were also assessed for impact on IL-6 receptor levels and subsequent STAT3 activity.

[4] = MLN, D15 and D45, by the end point

Experimental for iTregs: For example, TDMM- and control-induced Treg cultures from CD4+ CD25− GFP− naïve T cells of FOXP3EGFP mice are sorted based on GFP fluorescence. GFP+ cells (˜1×10^6 cells/mL) are cultured in the presence of pro-inflammatory cytokines IL-1, IL-6, IL-21 and IL-23 ±TCR stimulation on an anti-CD3/CD28 mAb coated plate for 24, 48 and 72 hours [Yang, X. O., et al., Immunity 29(1): p. […] Next, the stability (as measured by expression of FOXP3, RORγT, TGF-β, IL-10, IL-35 and IL-17) of TDMM-conditioned Tregs is analyzed compared to control-induced Tregs by ELISA of supernatants or 4 h treatment with Golgi plug (for cytokine staining) and subsequent intracellular staining with fluorophore-conjugated mAbs and flow cytometry.

c1ccc2[nH]ccc2c1 [Indole, indole]
Treg differentiation in vivo (% FoxP3+ T cells and FoxP3+ levels, MLN) (Th17 transfer colitis; MLN, D15 and D45): induced early differentiation of Treg differentiation in vivo | Th1 differentiation in vivo (% INF-γ+ T cells, Th1/Treg balance, MLN) (Th17 transfer colitis; [4]): suppresses Th1 differentiation in vivo | Th17 differentiation in vivo (% IL-17+ T cells, Th17/Treg balance, MLN) (Th17 transfer colitis; [4]): suppresses Th17 differentiation in vivo | weight change (% from starting weight) (Th17 transfer colitis; mice receiving conditioned Th17 T cells, around day 43, end point day 49): increase in body weight | Th17 transfer colitis in vivo (overall) (Th17 transfer colitis; mouse, in vivo): inhibits the Th17 transfer colitis in vivo | FoxP3 expression (iTregs; control (DMF induced) iTregs in the presence of indole, after TCR stimulation (αCD3/28), without indole 9.3%): 26.1% | FoxP3 expression (iTregs; control (DMF induced) iTregs in the presence of indole, first value, before TCR stimulation): 52.8% | FoxP3 expression (iTregs; indole-induced iTregs cultured three days with 1 mM indole, first value): 64.2% | FoxP3 expression (iTregs; indole-induced iTregs cultured three days with 1 mM indole, second value, after TCR stimulation): 52.2% | FoxP3 expression (iTregs; indole-induced iTregs cultured three days with DMF, first value): 63% | FoxP3 expression (iTregs; indole-induced iTregs cultured three days with DMF, second value, after TCR stimulation): 24.9% | increase in the % of FOXP3+ cells compared to cells exposed to 1 mM indole (CD4+ CD25− naïve T cells [1]; 750 μM indole, absence of IL-4): 4% | proportion of FoxP3+ iTregs (CD4+ CD25− naïve T cells [1]; 1 mM indole, Treg skewing conditions, solvent control 25%): 68.8% | % FoxP3+ cells with reduced / titrated TGF-β (CD4+ CD25− naïve T cells [1]; TGF-β below threshold for Treg induction, low and high titrations): Treg induction occurs notwithstanding low levels of TGF-β; also recorded: increased the % FoxP3+ cells | FoxP3 induction under Th0 conditions (CD4+ CD25− naïve T cells [1]; Th0 conditions (no TGF-β)): induced FoxP3 even under Th0 conditions | % FoxP3+ cells, indole, butyrate and 5-HI all combined (CD4+ CD25− naïve T cells [1]; Treg skewing conditions): the % FoxP3+ increased again | % FoxP3+ cells, indole combined with 5-HI (CD4+ CD25− naïve T cells [1]; Treg skewing conditions, vs 5-HI alone): negated the inhibitory effects of 5-HI on % FoxP3+ cells | effect on % FoxP3+ cells / Treg differentiation (CD4+ CD25− naïve T cells [1]; Treg skewing conditions): significantly increased the % of FoxP3+ cells | effect on % FoxP3+ cells / Treg differentiation (CD4+ CD25− naïve T cells [1]; Treg skewing conditions, listed as indole): dose-dependent; also recorded: strong pro-Treg response; also recorded: significantly increased the % FoxP3+ cells | % FoxP3+ cells (CD4+ CD25− naïve T cells [1]; IL-4 6 ng/mL): 25% | % FoxP3+ cells (CD4+ CD25− naïve T cells [1]; IL-4 10 ng/mL): 28% | per-cell expression of FOXP3 (GFP) (CD4+ CD25− naïve T cells [1]; indole-induced iTregs, pre- and post-sort, 72 hours): higher per-cell expression of FOXP3 (GFP) both pre- and post-sort | expansion of Tregs (Foxp3+ %) at standard TGF-β dose (CD4+ CD25− naïve T cells [1]; standard TGF-β dose): doubles | level of FoxP3 expression (MFI) (CD4+ CD25− naïve T cells [1]; vs solvent control): significantly increased | colitis (mouse weight as measure of inflammation) (DSS colitis): inhibits colitis in a T-cell-dependent manner | % IFN-γ+ cells, indole combined with butyrate (CD4+ CD25− naïve T cells [2]; regardless of 5-HI presence): the % IFN-γ+ cells decreases | % IFN-γ+ cells, indole combined with 5-HI (CD4+ CD25− naïve T cells [2]; vs 5-HI alone): negated when 5-HI is combined with indole | effect on % Th1 cells (IFN-γ+) (CD4+ CD25− naïve T cells [2]; vs solvent control): no effect; also recorded: did not influence the development of Th1 and Th2 cells; also recorded: did not affect the Th1 skewing of Th1 cells | % P-S6 (mTOR activation) (mTOR): significantly reduced | % pSMAD2/3+ cells ([3]; TGF-β induced, vs 5-HI or DMF control): higher | % TGF-β receptor+ cells ([3]; vs DMF control): significantly increase
